Reference: patent US8394774B2, “Pesticidal compositions” (Dow AgroSciences, LLC., priority 2009, dated 2013)
Read-outs that look alike come from different tables or passages of the source.

Tests used:
[1] = system: beet armyworm (BAW; Spodoptera exigua: Lepidoptera); test: 128-well diet tray assay on beet armyworm (BAW 50); type: in vivo; details: 144 h, read-out: BAW 50
Method: (§1) Bioassays on beet armyworm (BAW; Spodoptera exigua: Lepidoptera) were conducted using either a 96-well microtiter plate-based high throughput (HTS) bioassay or a 128-well diet tray assay. The HTS assay is based on a modification of Lewer et al. J. Nat. Prod. 2006, 69, 1506. BAW eggs were placed on top of artificial diet (100 μL) in each well of a 96-well microtiter plate. The diet was pretreated with test compounds (12 μg dissolved in 30 μL of DMSO-acetone-H2O mixture) layered on top of the diet using a liquid handling system and then allowed to dry for several hours. Infested plates were then covered with a layer of sterile cotton batting and the plate lid, and then held in the dark at 29° C. Mortality was recorded at 6 days post-treatment. Each plate had six replicates. The percent mortality was calculated from the average of the six replicates. In the case of the 128-well diet assay, three to five second instar BAW larvae were placed in each well (3 mL) of the diet tray that had been previously filled with 1 mL of artificial diet to which 50 ug/cm^2 of the test compound (dissolved in 50 μL of 90:10 acetone-water mixture) had been applied (to each of eight wells) and then allowed to dry. Trays were covered with a clear self-adhesive cover, and held at 25° C., 14:10 light-dark for six days. Percent mortality was recorded for the larvae in each well; activity in the eight wells was then averaged. In Table 4, under both the BAW HTS and BAW 50 headings, an “A” means that the compound was tested and at least 50 percent mortality was observed whereas, “B” means that either (1) the compound was tested and less than 50 percent mortality was observed or (2) the compound was not tested.

[2] = system: beet armyworm (BAW; Spodoptera exigua: Lepidoptera); test: 96-well microtiter plate-based high throughput (HTS) bioassay on beet armyworm (BAW HTS); type: in vivo; details: 144 h, read-out: BAW HTS
Method: as §1

[3] = percent mortality, 128-well diet assay, 50 ug/cm^2 of test compound on diet, second instar BAW larvae, six days, 25° C., average of eight wells
[4] = percent mortality, 96-well HTS, 12 μg test compound on diet, BAW eggs, 6 days post-treatment, 29° C., average of six replicates

CCCO[C@@H]1[C@@H](OC)[C@H](C)O[C@@H](O/N=C/c2ccc(/C=C/c3ccc(OC(F)(F)F)cc3)cc2)[C@@H]1OC [Compound 1, 4-[(E)-2-(4-trifluoromethoxyphenyl)-vinyl]-benzaldehyde O-((2S,3R,4R,5S,6S)-3,5-dimethoxy-6-methyl-4-propoxy-tetrahydropyran-2-yl)-oxime]
pest or weed control at 50 µg/cm2, 50 µg/cm2 [1, 3]: > 50% | pest or weed control at 12 µg/well, 12 µg/well [2, 4]: > 50%

CCO[C@@H]1[C@@H](OC)[C@H](C)O[C@@H](O/N=C/c2ccc(/C=C/c3ccc(C(F)(F)F)cc3)cc2)[C@@H]1OC [Compound 2, 4-[(E)-2-(4-Trifluoromethylphenyl)-vinyl]-benzaldehyde O-((2S,3R,4R,5S,6S)-4-ethoxy-3,5-dimethoxy-6-methyl-tetrahydropyran-2-yl)-oxime]
pest or weed control at 50 µg/cm2, 50 µg/cm2 [1, 3]: > 50% | pest or weed control at 12 µg/well, 12 µg/well [2, 4]: > 50%

CCO[C@@H]1[C@@H](OC)[C@H](C)O[C@@H](O/N=C/c2ccc(/C=C/c3ccc(C(F)(F)C(F)(F)OC(F)(F)C(F)(F)C(F)(F)F)cc3)cc2)[C@@H]1OC [Compound 3]
pest or weed control at 50 µg/cm2, 50 µg/cm2 [1, 3]: < 50% | pest or weed control at 12 µg/well, 12 µg/well [2, 4]: < 50%

CCO[C@@H]1[C@@H](OC)[C@H](C)O[C@@H](O/N=C/c2ccc(/C=C/c3ccc(C(C)=O)cc3)cc2)[C@@H]1OC [Compound 4, 4-[(E)-2-(4-Acetyl-phenyl)-vinyl]-benzaldehyde O-((2S,3R,4R,5S,6S)-4-ethoxy-3,5-dimethoxy-6-methyl-tetrahydropyran-2-yl)-oxime]
pest or weed control at 50 µg/cm2, 50 µg/cm2 [1, 3]: < 50% | pest or weed control at 12 µg/well, 12 µg/well [2, 4]: < 50%

CCO[C@@H]1[C@@H](OC)[C@H](C)O[C@@H](O/N=C/c2ccc(/C=C/c3ccc(OC(F)(F)F)cc3)cc2)[C@@H]1OC [Compound 5, 4-[(E)-2-(4-Trifluoromethoxyphenyl)-vinyl]-benzaldehyde O-((2S,3R,4R,5S,6S)-4-ethoxy-3,5-dimethoxy-6-methyl-tetrahydropyran-2-yl)-oxime]
pest or weed control at 50 µg/cm2, 50 µg/cm2 [1, 3]: > 50% | pest or weed control at 12 µg/well, 12 µg/well [2, 4]: < 50%

CCO[C@@H]1[C@@H](OC)[C@H](C)O[C@@H](O/N=C/c2ccc(/C=C/c3cccc(C(F)(F)F)c3)cc2)[C@@H]1OC [Compound 6, 4-[(E)-2-(3-Trifluoromethylphenyl)-vinyl]-benzaldehyde O-((2S,3R,4R,5S,6S)-4-ethoxy-3,5-dimethoxy-6-methyl-tetrahydropyran-2-yl)-oxime]
pest or weed control at 50 µg/cm2, 50 µg/cm2 [1, 3]: > 50% | pest or weed control at 12 µg/well, 12 µg/well [2, 4]: > 50%

CCO[C@@H]1[C@@H](OC)[C@H](C)O[C@@H](O/N=C/c2ccc(/C=C/c3ccc(OC(F)(F)C(F)(F)F)cc3)cc2)[C@@H]1OC [Compound 7, 4-[(E)-2-(4-Pentafluoroethyloxyphenyl)-vinyl]-benzaldehyde O-((2S,3R,4R,5S,6S)-4-ethoxy-3,5-dimethoxy-6-methyl-tetrahydropyran-2-yl)-oxime]
pest or weed control at 50 µg/cm2, 50 µg/cm2 [1, 3]: > 50% | pest or weed control at 12 µg/well, 12 µg/well [2, 4]: < 50%

CO[C@@H]1[C@@H](OC)[C@H](C)O[C@@H](O/N=C/c2ccc(/C=C/c3ccc(OC(F)(F)F)cc3)cc2)[C@@H]1OC [Compound 8]
pest or weed control at 50 µg/cm2, 50 µg/cm2 [1, 3]: > 50% | pest or weed control at 12 µg/well, 12 µg/well [2, 4]: > 50%

CO[C@@H]1[C@@H](OC)[C@H](C)O[C@@H](O/N=C/c2ccc(/C=C/c3cccc(C(F)(F)F)c3)cc2)[C@@H]1OC [Compound 9, 4-[(E)-2-(3-Trifluoromethylphenyl)-vinyl]-benzaldehyde O-((2S,3R,4R,5S,6S)-3,4,5-trimethoxy-6-methyl-tetrahydropyran-2-yl)-oxime]
pest or weed control at 50 µg/cm2, 50 µg/cm2 [1, 3]: > 50% | pest or weed control at 12 µg/well, 12 µg/well [2, 4]: < 50%

CCCO[C@@H]1[C@@H](OC)[C@H](C)O[C@@H](O/N=C/c2ccc(/C=C/c3ccc(C(F)(F)F)cc3)cc2)[C@@H]1OC [Compound 10, 4-[(E)-2-(4-Trifluoromethylphenyl)-vinyl]-benzaldehyde O-((2S,3R,4R,5S,6S)-4-propoxy-3,5-dimethoxy-6-methyl-tetrahydropyran-2-yl)-oxime]
pest or weed control at 50 µg/cm2, 50 µg/cm2 [1, 3]: > 50% | pest or weed control at 12 µg/well, 12 µg/well [2, 4]: > 50%

CCO[C@@H]1[C@@H](OC)[C@H](C)O[C@@H](O/N=C/c2ccc(/C=C/c3ccc(C(O)(C(F)(F)F)C(F)(F)F)cc3)cc2)[C@@H]1OC [Compound 11, 4-{(E)-2-[4-(2,2,2-Trifluoro-1-hydroxy-1-trifluoromethyl-ethyl)-phenyl]-vinyl}-benzaldehyde O-((2S,3R,4R,5S,6S)-4-ethoxy-3,5-dimethoxy-6-methyl-tetrahydropyran-2-yl)-oxime]
pest or weed control at 50 µg/cm2, 50 µg/cm2 [1, 3]: < 50% | pest or weed control at 12 µg/well, 12 µg/well [2, 4]: > 50%

CO[C@@H]1[C@@H](OC)[C@H](C)O[C@@H](O/N=C/c2ccc(/C=C/c3ccc(C(F)(F)F)cc3)cc2)[C@@H]1OC [Compound 12, 4-[(E)-2-(4-Trifluoromethylphenyl)-vinyl]-benzaldehyde O-((2S,3R,4R,5S,6S)-3,4,5-trimethoxy-6-methyl-tetrahydropyran-2-yl)-oxime]
pest or weed control at 50 µg/cm2, 50 µg/cm2 [1, 3]: > 50% | pest or weed control at 12 µg/well, 12 µg/well [2, 4]: > 50%

CCO[C@@H]1[C@@H](OC)[C@H](C)O[C@@H](O/N=C/c2ccc(C#Cc3ccc(OC(F)(F)F)cc3)cc2)[C@@H]1OC [Compound 13, 4-(4-trifluoromethoxyphenylethynyl)-benzaldehyde O-((2S,3R,4R,5S,6S)-4-ethoxy-3,5-dimethoxy-6-methyl-tetrahydropyran-2-yl)-oxime]
pest or weed control at 50 µg/cm2, 50 µg/cm2 [1, 3]: > 50% | pest or weed control at 12 µg/well, 12 µg/well [2, 4]: > 50%

CCO[C@@H]1[C@@H](OC)[C@H](C)O[C@@H](O/N=C/c2ccc(C#Cc3ccc(C(F)(F)F)cc3)cc2)[C@@H]1OC [Compound 14, 4-(4-Trifluoromethylphenylethynyl)-benzaldehyde O-((2S,3R,4R,5S,6S)-4-ethoxy-3,5-dimethoxy-6-methyl-tetrahydropyran-2-yl)-oxime]
pest or weed control at 50 µg/cm2, 50 µg/cm2 [1, 3]: > 50% | pest or weed control at 12 µg/well, 12 µg/well [2, 4]: > 50%

CO[C@@H]1[C@@H](OC)[C@H](C)O[C@@H](O/N=C/c2ccc(C#Cc3ccc(C(F)(F)F)cc3)cc2)[C@@H]1OC [Compound 15, 4-(4-Trifluoromethylphenylethynyl)-benzaldehyde O-((3R,4R,5S,6S)-3,4,5-trimethoxy-6-methyl-tetrahydropyran-2-yl)-oxime]
pest or weed control at 50 µg/cm2, 50 µg/cm2 [1, 3]: > 50% | pest or weed control at 12 µg/well, 12 µg/well [2, 4]: > 50%

CCO[C@@H]1[C@@H](OC)[C@H](C)O[C@@H](OC(=O)Nc2ccc(/C=C/c3ccc(C(F)(F)F)cc3)cc2)[C@@H]1OC [Compound 16, {4-[(E)-2-(4-trifluoromethylphenyl)-vinyl]-phenyl}-carbamic acid (2S,3R,4R,5S,6S)-4-ethoxy-3,5-dimethoxy-6-methyl-tetrahydropyran-2-yl ester]
pest or weed control at 50 µg/cm2, 50 µg/cm2 [1]: > 50% | pest or weed control at 12 µg/well, 12 µg/well [2]: > 50%

CCOc1ccc(/C=C/c2ccc(NC(=O)O[C@@H]3O[C@@H](C)[C@H](OC)[C@@H](OC)[C@H]3OC)cc2)cc1 [Compound 17, {4-[(E)-2-(4-Ethoxyphenyl)-vinyl]-phenyl}-carbamic acid (2S,3R,4R,5S,6S)-3,4,5-tri-methoxy-6-methyl-tetrahydropyran-2-yl ester]
pest or weed control at 50 µg/cm2, 50 µg/cm2 [1]: > 50% | pest or weed control at 12 µg/well, 12 µg/well [2]: < 50%

CCCO[C@@H]1[C@@H](OC)[C@H](C)O[C@@H](OC(=O)Nc2ccc(/C=C/c3ccc(OC(F)(F)C(F)(F)F)cc3)cc2)[C@@H]1OC [Compound 18, {4-[(E)-2-(4-Pentafluoroethyloxyphenyl)-vinyl]-phenyl}-carbamic acid (2S,3R,4R,5S,6S)-4-propoxy-3,5-dimethoxy-6-methyl-tetrahydropyran-2-yl ester]
pest or weed control at 50 µg/cm2, 50 µg/cm2 [1]: > 50% | pest or weed control at 12 µg/well, 12 µg/well [2]: < 50%

CCO[C@@H]1[C@@H](OC)[C@H](C)O[C@@H](OC(=O)Nc2ccc(/N=N/c3cccc(OC(F)(F)F)c3)cc2)[C@@H]1OC [Compound 19, [4-(3-trifluoromethoxyphenylazo)-phenyl]-carbamic acid (2S,3R,4R,5S,6S)-3,5-dimethoxy-4-ethoxy-6-methyl-tetrahydropyran-2-yl ester]
pest or weed control at 50 µg/cm2, 50 µg/cm2 [1]: > 50% | pest or weed control at 12 µg/well, 12 µg/well [2]: > 50%

CCO[C@@H]1[C@@H](OC)[C@H](C)O[C@@H](OC(=O)Nc2ccc(/N=N/c3ccc(OC(F)(F)F)cc3)cc2)[C@@H]1OC [Compound 20, [4-(4-Trifluoromethoxy-phenylazo)-phenyl]-carbamic acid (2S,3R,4R,5S,6S)-4-ethoxy-3,5-dimethoxy-6-methyl-tetrahydropyran-2-yl ester]
pest or weed control at 50 µg/cm2, 50 µg/cm2 [1]: > 50% | pest or weed control at 12 µg/well, 12 µg/well [2]: > 50%

CCO[C@@H]1[C@@H](OC)[C@H](C)O[C@@H](OC(=O)Nc2ccc(/N=N/c3ccc(C(F)(F)F)cc3)cc2)[C@@H]1OC [Compound 21, [4-(4-Trifluoromethylphenylazo)-phenyl]-carbamic acid (2S,3R,4R,5S,6S)-4-ethoxy-3,5-dimethoxy-6-methyl-tetrahydropyran-2-yl ester]
pest or weed control at 50 µg/cm2, 50 µg/cm2 [1]: < 50% | pest or weed control at 12 µg/well, 12 µg/well [2]: > 50%
